Columns and labels:
[1] = system: Bacteria: Escherichia coli, Staphylococcus aureus, Pseudomonas aeruginosa, Pseudomonas putida, Burkholderia cepacia, Alcaligenes faecalis; test: Preservation test with periodic inoculation, bacteria assessment; format: cell-based; conditions: for Start sample measurement, bact. assess., 4th inoculation: freshly formulated; for 60 d 40° C., bact. assess., 4th inoculation: sample stored 60 d at 40° C.
Procedure: Microbiological results at the start (freshly formulated, i.e. 4-week test series is started immediately) and after 60 days of storage at 40° C. (i.e. the 4-week microbial testing is started with the sample stored at 40° C. for 60 days)
The test described below is carried out in order to ascertain the preserving effect of chemical preservatives in aqueous products and systems, the principle of the described method reflecting the efficacy of chemical preservatives with respect to pot-maintenance of aqueous products/systems under conditions corresponding to the use of laundry products/consumer products by the consumer. For this purpose, the preservatives to be tested are added in those concentrations which correspond to from the literature or to the manufacturer data from the suppliers (e.g. Thor, Speyer). In said test, our orientation was toward the upper range, which, with the exception of VI-containing polymers, had always led to excellent results in the case of aqueous polymers for laundry.
A constant microorganism load is achieved by periodic inoculation of the test batches. Before the swabs of each batch made respectively immediately in parallel with the inoculation. The assessment is made on the basis of the microbial growth of the streaks.
When carrying out said tests, 25 g of the polymer to be tested are weighed in each case into a vessel with a screw cap. The preservatives to be tested are each added in separate batches according to the specified use concentrations. An unpreserved product sample was used in each case for the growth control. Two days after the addition of the preservative, the samples are infected with 0.5 ml of inoculum (2% w/w). The titer of this inoculant solution is 10^9 organisms per ml. The following microorganisms are the test organisms for the preservation test:
• Escherichia coli • Staphylococcus aureus • Pseudomonas aeruginosa • Pseudomonas putida • Burkholderia cepacia • Alcaligenes faecalis Yeast: • Candida albicans • Candida valida • Rhodotorula rura • Saccharomyces cerevisiae
The test batches are inoculated four times altogether and once a week and are streaked on an agar plate once a week; the first streaking is done immediately before the new inoculation. Microbial growth on the agar surface is assessed after a three-day incubation at 25° C. As a precaution, negative swabs are additionally observed for a further three days and reassessed. The preserving effect is effected in a semiquantitative method via the growth of the individual streaks in accordance with the assessment from − via + to +++. The preservative result is repeatedly demonstrably robust, i.e. +++− defines the microbial growth.
When assessing the results, it is assumed that a preservative can be regarded as good if there are batches under the above-described laboratory conditions for a period of four weeks without microbial invasion of the sample, and that, even after the fourth inoculation, no microbial attacks occur growth can be identified. • −−: no growth • −: slight growth, max. 100 colonies • 0: moderate growth, max. 400 colonies • +: uniform growth with individual colonies still easily identifiable • ++: strong growth; too many colonies to be counted, already some extensive growth

[2] = Iodine color number according to DIN 6162:2014-09; format: physicochemical
[3] = Physical stability; visual assessment (color, turbidity, phase separation); format: physicochemical; set-up: key: ++: no discernible change with respect to color, turbidity or phase separation; +: marginal change in color number, somewhat increased Tyndall effect but no turbidity; 0: easily discernible increase in color number and moderate turbidity−no phase separation; −: turbidity and change in color number readily discernible by visual assessment; −−: strong color change with strong turbidity and incipient phase separation
Outline: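 Samples were inspected visually for color, turbidity and phase separation and scored on a five-step scale. Scores run from ++ (no discernible change) to −− (strong color change, strong turbidity, incipient phase separation).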

[4] = Analysis of active substance: preservative concentration before and after storage in VI-containing polymer solution; format: physicochemical; conditions: for active-substance concentration, 0 d, RT: before storage; for active-substance concentration, 14 d, 40° C.: storage 14 d at 40° C.; for active-substance concentration, 28 d, 40° C.: storage 28 d at 40° C.; for active-substance concentration, 60 d 40° C.: storage 60 d at 40° C.
Procedure: Stability of Preservatives in VI-Containing Polymers:
The following stabilizers for VI-containing polymers (here: aqueous solution of a copolymer of vinylpyrrolidone and vinylimidazole) were tested.
MIT, BIT, CMIT, OIT, DCOIT and iodopropynyl butyl carbamate were determined by RP chromatography with UV detection after dilution of the sample to be tested. An RP18 column was used for this purpose, with an eluent composed of an acid-methanol mixture under isocratic conditions.

[5] = Polymer P5 (HP56) with stabilizer

SMILES: O=c1[nH]sc2ccccc12 [BIT, 1,2-benzisothiazolin-3-one]
- Start sample measurement, bact. assess., 4th inoculation ([1]; Polymer P1): − (slight growth, max. 100 colonies)
- 60 d 40° C., bact. assess., 4th inoculation ([1]; Polymer P1): +
- Start sample measurement, bact. assess., 4th inoculation ([1]; Polymer P2): − (slight growth, max. 100 colonies)
- 60 d 40° C., bact. assess., 4th inoculation ([1]; Polymer P2): ++
- Start sample measurement, bact. assess., 4th inoculation ([1]; Polymer P3): − (slight growth, max. 100 colonies)
- 60 d 40° C., bact. assess., 4th inoculation ([1]; Polymer P3): ++
- 60 d 40° C., bact. assess., 4th inoculation ([1]; Polymer P4): +
- 60 d 40° C., bact. assess., 4th inoculation ([1]; Polymer P5 (HP56)): ++
- 60 d 40° C., bact. assess., 4th inoculation ([1]; Polymer P6): +
- 60 d 40° C., bact. assess., 4th inoculation ([1]; Polymer P7): ++
- Start sample measurement, bact. assess., 4th inoculation ([1]; Polymer P8): − (slight growth, max. 100 colonies)
- 60 d 40° C., bact. assess., 4th inoculation ([1]; Polymer P8): +
- 60 d 40° C., bact. assess., 4th inoculation ([1]; Polymer P9): ++
- Iodine color number, 60 d 40° C. ([2]; Polymer P1 with stabilizer): 6.0
- Iodine color number, start ([2]; Polymer P1 with stabilizer): 2.6
- Iodine color number, 60 d 40° C. ([2]; Polymer P2 with stabilizer): 7.1
- Iodine color number, start ([2]; Polymer P2 with stabilizer): 2.9
- Iodine color number, 60 d 40° C. ([2]; Polymer P3 with stabilizer): 9.3
- Iodine color number, start ([2]; Polymer P3 with stabilizer): 3.4
- Iodine color number, 60 d 40° C. ([2]; Polymer P4 with stabilizer): 9.2
- Iodine color number, start ([2]; Polymer P4 with stabilizer): 3.4
- Iodine color number, 60 d 40° C. [2, 5]: 10.4
- Iodine color number, start [2, 5]: 3.6
- Iodine color number, 60 d 40° C. ([2]; Polymer P6 with stabilizer): 10.0
- Iodine color number, start ([2]; Polymer P6 with stabilizer): 3.6
- Iodine color number, 60 d 40° C. ([2]; Polymer P7 with stabilizer): 10.0
- Iodine color number, start ([2]; Polymer P7 with stabilizer): 3.6
- Iodine color number, 60 d 40° C. ([2]; Polymer P8 with stabilizer): 10.4
- Iodine color number, start ([2]; Polymer P8 with stabilizer): 3.4
- Iodine color number, 60 d 40° C. ([2]; Polymer P9 with stabilizer): 12.8
- Iodine color number, start ([2]; Polymer P9 with stabilizer): 4.0
- Physical stability, 60 d 40° C.* ([3]; Polymer P1 with stabilizer): −
- Physical stability, 60 d 40° C.* ([3]; Polymer P2 with stabilizer): −
- Physical stability, 60 d 40° C.* ([3]; Polymer P3 with stabilizer): −
- Physical stability, 60 d 40° C.* ([3]; Polymer P4 with stabilizer): −
- Physical stability, 60 d 40° C.* [3, 5]: −
- Physical stability, 60 d 40° C.* ([3]; Polymer P6 with stabilizer): −
- Physical stability, 60 d 40° C.* ([3]; Polymer P7 with stabilizer): −
- Physical stability, 60 d 40° C.* ([3]; Polymer P8 with stabilizer): −−
- Physical stability, 60 d 40° C.* ([3]; Polymer P9 with stabilizer): −
- active-substance concentration, 0 d, RT ([4]; in Polymer P1): 150 ppm
- active-substance concentration, 14 d, 40° C. ([4]; in Polymer P1): 101 ppm
- active-substance concentration, 28 d, 40° C. ([4]; in Polymer P1): 85 ppm
- active-substance concentration, 60 d 40° C. ([4]; in Polymer P1): 69 ppm
- active-substance concentration, 0 d, RT ([4]; in Polymer P2): 150 ppm
- active-substance concentration, 14 d, 40° C. ([4]; in Polymer P2): 112 ppm
- active-substance concentration, 28 d, 40° C. ([4]; in Polymer P2): 93 ppm
- active-substance concentration, 60 d 40° C. ([4]; in Polymer P2): 80 ppm
- active-substance concentration, 0 d, RT ([4]; in Polymer P3): 150 ppm
- active-substance concentration, 14 d, 40° C. ([4]; in Polymer P3): 119 ppm
- active-substance concentration, 28 d, 40° C. ([4]; in Polymer P3): 99 ppm
- active-substance concentration, 60 d 40° C. ([4]; in Polymer P3): 80 ppm
- active-substance concentration, 0 d, RT ([4]; in Polymer P4): 150 ppm
- active-substance concentration, 14 d, 40° C. ([4]; in Polymer P4): 117 ppm
- active-substance concentration, 28 d, 40° C. ([4]; in Polymer P4): 93 ppm
- active-substance concentration, 60 d 40° C. ([4]; in Polymer P4): 82 ppm
- active-substance concentration, 0 d, RT ([4]; in Polymer P5 (HP56)): 150 ppm
- active-substance concentration, 14 d, 40° C. ([4]; in Polymer P5 (HP56)): 101 ppm
- active-substance concentration, 28 d, 40° C. ([4]; in Polymer P5 (HP56)): 85 ppm
- active-substance concentration, 60 d 40° C. ([4]; in Polymer P5 (HP56)): 69 ppm
- active-substance concentration, 0 d, RT ([4]; in Polymer P6): 150 ppm
- active-substance concentration, 14 d, 40° C. ([4]; in Polymer P6): 99 ppm
- active-substance concentration, 28 d, 40° C. ([4]; in Polymer P6): 83 ppm
- active-substance concentration, 60 d 40° C. ([4]; in Polymer P6): 66 ppm
- active-substance concentration, 0 d, RT ([4]; in Polymer P7): 150 ppm
- active-substance concentration, 14 d, 40° C. ([4]; in Polymer P7): 105 ppm
- active-substance concentration, 28 d, 40° C. ([4]; in Polymer P7): 88 ppm
- active-substance concentration, 60 d 40° C. ([4]; in Polymer P7): 72 ppm
- active-substance concentration, 0 d, RT ([4]; in Polymer P8): 150 ppm
- active-substance concentration, 14 d, 40° C. ([4]; in Polymer P8): 101 ppm
- active-substance concentration, 28 d, 40° C. ([4]; in Polymer P8): 85 ppm
- active-substance concentration, 60 d 40° C. ([4]; in Polymer P8): 69 ppm
- active-substance concentration, 0 d, RT ([4]; in Polymer P9): 150 ppm
- active-substance concentration, 14 d, 40° C. ([4]; in Polymer P9): 97 ppm
- active-substance concentration, 28 d, 40° C. ([4]; in Polymer P9): 78 ppm
- active-substance concentration, 60 d 40° C. ([4]; in Polymer P9): 60 ppm

From patent US12281225B2, “Process for preparing stable polymers containing vinylimidazole” (BASF SE, priority 2018, dated 2025)
